Source: PMC6929975, “A supramolecular protein chaperone for vaccine delivery” (Theranostics, 2020)
Starred links: 1 amine or outer side, 2 acyl side, 3 side chain; linkers in the order of their positions; H or OH if unused. Non-standard residues stand in square brackets, D forms with d. Residues, ends and D or L forms follow the SMILES beside them. Groups on a side chain read outwards from the residue. *: point of attachment. γGlu = O=C(O)[C@H](CCC(=O)[*:2])N[*:1]; X1 = CC(C(=O)*)c1ccc(-c2ccccc2)c(F)c1

Columns and labels:
ovalbumin (OVA) = target: T1, ovalbumin (OVA) (Gallus gallus, UniProt P01012); test: Microscale thermophoresis (MST) binding to OVA; details: Monolith NT.115, NT-647-labelled protein, PBS with 0.05% Tween-20, pH 7.4, Comp. 0.25 μM to 10 mM
T1 construct: purchased InvivoGen
T1 sequence (P01012 1-386): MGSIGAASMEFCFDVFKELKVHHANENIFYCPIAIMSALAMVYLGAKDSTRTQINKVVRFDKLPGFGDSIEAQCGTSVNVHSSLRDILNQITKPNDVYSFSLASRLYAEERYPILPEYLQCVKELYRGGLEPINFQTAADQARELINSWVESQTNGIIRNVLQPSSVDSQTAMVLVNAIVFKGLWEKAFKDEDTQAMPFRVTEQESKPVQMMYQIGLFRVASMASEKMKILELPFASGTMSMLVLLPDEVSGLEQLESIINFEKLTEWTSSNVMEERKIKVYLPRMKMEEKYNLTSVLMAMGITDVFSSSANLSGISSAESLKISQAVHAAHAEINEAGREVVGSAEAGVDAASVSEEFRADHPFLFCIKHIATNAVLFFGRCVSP
Text: For the interaction experiments of fluorescent-proteins with Comp. […] 1 or 2 at 1:1 volume ratio.

[1] = Antigen release assay (OVA release from hydrogel); type: physicochemical; details: physically encapsulated OVA, 0.2 wt% gel, 150 μL, 30 μg OVA-RBITC, PBS pH 7.4, 37 °C, absorbance 560 nm
Description: The released profiles of OVA-RBITC from Vac-1 and Vac-2 in vitro were studied at 37 °C. 150 μL of Vac-1 or Vac-2 (0.2 wt%) containing 30 μg of OVA-RBITC was used for the measurement. 150 μL PBS solution (pH = 7.4) was firstly added on top of the gel, 100 μL of solution was taken out at the desired time point and 100 μL of fresh PBS solutions was added back. The absorbance of OVA-RBITC was determined at 560 nm by a microplate reader (BioTek Synergy 4) to calculate the cumulative release rate of OVA-RBITC from hydrogel vaccines.

splenocytes = details: 80 µg/mL
[2] = tested on: Raw 264.7 mouse macrophages; details: 80 µg/mL
[3] = Dissolution and protein-induced hydrogelation / gel stability; type: physicochemical; details: coassembled hydrogel with OVA, room temperature (20-25 °C)
Description: 2.5 mg of compounds were dispersed in endotoxin-free PBS buffer solution (pH = 7.4) at a final concentration of 0.5 wt% with sodium carbonate to adjust the final pH to 7.4. Proteins were dispersed in endotoxin-free PBS buffer solution (pH = 7.4) at a final concentration of 10 μg/μL. The proteins were then evenly dispersed in the hydrogel by vortexing. The mixtures were maintained at 37°C for half hour and hydrogel then formed. The final concentration of the protein in the hydrogel was 500 μg/mL.
We then tested the coassembly property of Comp. 1 with the model protein antigen ovalbumin (OVA). Comp. […] After adding OVA to the solution (final protein concentration = 0.05 wt%), we observed rapid hydrogelation within 10 minutes (Figure 1C). The resulting hydrogel was stable for more than 3 months at room temperature (20-25 °C). The maximum proportion of the nanofibers composed of OVA was 50% for Comp. 1 (Figure S5 and S6).

Q: For Fbp-G^DF^DF^DY [Comp. 2], which “binding affinity for OVA, in words” value (ovalbumin (OVA)) is on record?
A: no measurable binding affinity

Q: And the “cumulative OVA release within 16 hours” value [1]?
A: ~100%

Q: Which “cell viability, splenocytes” value (splenocytes) does the source give for `CC(C(=O)NCC(=O)N[C@H](Cc1ccccc1)C(=O)N[C@H](Cc1ccccc1)C(=O)N[C@H](Cc1ccc(O)cc1)C(=O)N[C@H](CCCCNC(=O)CC[C@H](NC(=O)CC[C@H](N)C(=O)O)C(=O)O)C(N)=O)c1ccc(-c2ccccc2)c(F)c1` (some centres unmarked) [Comp. 1, Fbp-G^DF^DF^DY^DK(γE)2-NH2] (X1-G[dF][dF][dY][dK]([γGlu-γGlu])-NH2) here?
A: did not remarkably reduce the cell viability

Q: What about the “cell viability, Raw 264.7” value [2] of the same compound?
A: did not remarkably reduce the cell viability

Q: What about the “stability of the resulting hydrogel” value [3] of the same compound?
A: more than 3 months
